Calls of active or inactive are those of the source. The calls are words filed in the database; no cut-off is given here.
Assays:
HCCLM3 [1] = assay: Antiproliferative activity against human HCCLM3 cells cultured as 2D cells assessed as inhibition of cell growth at 10 uM incubated for 72 hrs by CCK-8 assay; assay type: functional, cell-based
[2] = AUC (0 to infinity) in Sprague-Dawley rat at 10 mg/kg,iv administration by LC-MS/MS analysis; assay type: ADME, organism-based; conditions: in vivo
HCCLM3 [3] = assay: Inhibition of cell migration in TARBP2-knockout human HCCLM3 cells at 1 to 25 uM incubated for 24 hrs by transwell assay; assay type: functional, cell-based; conditions: dose 1-25 µM
HCCLM3 [4] = assay: Antiproliferative activity against TARBP2-knockout human HCCLM3 cells cultured as 3D cells assessed as inhibition of cell growth at 25 uM incubated for 72 hrs by CellTiter-Lumi assay; assay type: functional, cell-based
[5] = MRT (0 to t) in Sprague-Dawley rat at 10 mg/kg,iv administration by LC-MS/MS analysis; assay type: ADME, organism-based; conditions: in vivo
SK-HEP1 [6] = assay: Antiproliferative activity against human SK-HEP1 cells cultured as 3D cells assessed as inhibition of cell growth at 25 uM incubated for 72 hrs by CellTiter-Lumi assay; assay type: functional, cell-based
HCCLM3 [7] = assay: Inhibition of cell migration in human HCCLM3 cells at 10 uM incubated for 24 hrs by wound healing assay; assay type: functional, cell-based
SK-HEP1 [8] = assay: Inhibition of cell migration in human SK-HEP1 cells incubated for 24 hrs by transwell assay; assay type: functional, cell-based
Homo sapiens = organism: Homo sapiens; assay: Inhibition of recombinant human TRBP/recombinant human Dicer protein protein interaction at 25 uM by indirect-competition-ELISA
SK-HEP1 [9] = assay: Antiproliferative activity against human SK-HEP1 cells cultured as 3D cells assessed as inhibition of cell growth at 10 uM incubated for 72 hrs by CellTiter-Lumi assay; assay type: functional, cell-based
HCCLM3 [10] = assay: Inhibition of cell migration in human HCCLM3 cells incubated for 24 hrs by transwell assay; assay type: functional, cell-based
SK-HEP1 [11] = assay: Antiproliferative activity against TARBP2-knockout human SK-HEP1 cells cultured as 3D cells assessed as inhibition of cell growth at 25 uM incubated for 72 hrs by CellTiter-Lumi assay; assay type: functional, cell-based
[12] = Half life in Sprague-Dawley rat at 10 mg/kg,iv administration by LC-MS/MS analysis; assay type: ADME, organism-based; conditions: in vivo
[13] = Volume of distribution at steady state in Sprague-Dawley rat at 10 mg/kg,iv administration by LC-MS/MS analysis; assay type: ADME, organism-based; conditions: in vivo, read-out: Vdss
HCCLM3 [14] = assay: Antiproliferative activity against human HCCLM3 cells cultured as 3D cells assessed as inhibition of colony formation at 25 uM incubated for 21 days by 3D soft-agar based microscopic analysis; assay type: functional, cell-based; conditions: time 21.0 day
[15] = Acute toxicity in Kunming mouse assessed as effect on uric acid level in kidney at 100 mg/kg,ip administration measured after 14 days; assay type: organism-based; conditions: in vivo, 336 h, time 14 day
[16] = Acute toxicity in Kunming mouse assessed as pathological change in kidney at 100 mg/kg,ip administration measured after 14 days by hematoxylin and eosin staining based microscopic analysis; assay type: organism-based; conditions: in vivo, 336 h, time 14 day
[17] = Half life in Sprague-Dawley rat at 25 mg/kg,po administration by LC-MS/MS analysis; assay type: ADME, organism-based; conditions: in vivo
[18] = Acute toxicity in Kunming mouse assessed as body weight loss at 100 mg/kg,ip administration measured after 14 days; assay type: organism-based; conditions: in vivo, 336 h, time 14 day
[19] = Acute toxicity in Kunming mouse assessed as effect on creatinine level in kidney at 100 mg/kg,ip administration measured after 14 days; assay type: organism-based; conditions: in vivo, 336 h, time 14 day
[20] = AUC (0 to t) in Sprague-Dawley rat at 10 mg/kg,iv administration by LC-MS/MS analysis; assay type: ADME, organism-based; conditions: in vivo
[21] = MRT (0 to t) in Sprague-Dawley rat at 25 mg/kg,po administration by LC-MS/MS analysis; assay type: ADME, organism-based; conditions: in vivo
[22] = Acute toxicity in Kunming mouse assessed as pathological change in spleen at 100 mg/kg,ip administration measured after 14 days by hematoxylin and eosin staining based microscopic analysis; assay type: organism-based; conditions: in vivo, 336 h, time 14 day
[23] = Cmax in Sprague-Dawley rat at 25 mg/kg,po administration by LC-MS/MS analysis; assay type: ADME, organism-based; conditions: in vivo
SK-HEP1 [24] = assay: Antiproliferative activity against human SK-HEP1 cells cultured as 2D cells assessed as inhibition of cell growth at 10 uM incubated for 72 hrs by CCK-8 assay; assay type: functional, cell-based
[25] = Acute toxicity in Kunming mouse assessed as effect on ALT level in liver at 100 mg/kg,ip administration measured after 14 days; assay type: organism-based; conditions: in vivo, 336 h, time 14 day
[26] = Acute toxicity in Kunming mouse assessed as pathological change in heart at 100 mg/kg,ip administration measured after 14 days by hematoxylin and eosin staining based microscopic analysis; assay type: organism-based; conditions: in vivo, 336 h, time 14 day
[27] = Acute toxicity in Kunming mouse assessed as effect on urea level in kidney at 100 mg/kg,ip administration measured after 14 days; assay type: organism-based; conditions: in vivo, 336 h, time 14 day
[28] = Clearance in Sprague-Dawley rat at 10 mg/kg,iv administration by LC-MS/MS analysis; assay type: ADME, organism-based; conditions: in vivo
[29] = Tmax in Sprague-Dawley rat at 25 mg/kg,po administration by LC-MS/MS analysis; assay type: ADME, organism-based; conditions: in vivo
[30] = Tmax in Sprague-Dawley rat at 10 mg/kg,iv administration by LC-MS/MS analysis; assay type: ADME, organism-based; conditions: in vivo
[31] = Cmax in Sprague-Dawley rat at 10 mg/kg,iv administration by LC-MS/MS analysis; assay type: ADME, organism-based; conditions: in vivo
[32] = Acute toxicity in Kunming mouse assessed as effect on creatine kinase level in heart at 100 mg/kg,ip administration measured after 14 days; assay type: organism-based; conditions: in vivo, 336 h, time 14 day
[33] = Acute toxicity in Kunming mouse assessed as effect on ALB level in liver at 100 mg/kg,ip administration measured after 14 days; assay type: organism-based; conditions: in vivo, 336 h, time 14 day
[34] = Acute toxicity in Kunming mouse assessed as pathological change in lung at 100 mg/kg,ip administration measured after 14 days by hematoxylin and eosin staining based microscopic analysis; assay type: organism-based; conditions: in vivo, 336 h, time 14 day
[35] = AUC (0 to t) in Sprague-Dawley rat at 25 mg/kg,po administration by LC-MS/MS analysis; assay type: ADME, organism-based; conditions: in vivo
SK-HEP1 [36] = assay: Inhibition of cell migration in human SK-HEP1 cells at 10 uM incubated for 24 hrs by transwell assay; assay type: functional, cell-based
[37] = Acute toxicity in Kunming mouse assessed as effect on direct bilirubin level in liver at 100 mg/kg,ip administration measured after 14 days; assay type: organism-based; conditions: in vivo, 336 h, time 14 day
[38] = Acute toxicity in Kunming mouse assessed as effect on lactate dehydrogenase level in heart at 100 mg/kg,ip administration measured after 14 days; assay type: organism-based; conditions: in vivo, 336 h, time 14 day
[39] = MRT (0 to infinity) in Sprague-Dawley rat at 25 mg/kg,po administration by LC-MS/MS analysis; assay type: ADME, organism-based; conditions: in vivo
HCCLM3 [40] = assay: Antiproliferative activity against human HCCLM3 cells assessed as downregulation of SMAD2 phosphorylation incubated for 24 hrs by Western blotting analysis; assay type: functional, cell-based
HCCLM3 [41] = assay: Inhibition of cell migration in human HCCLM3 cells at 10 uM incubated for 24 hrs by transwell assay; assay type: functional, cell-based
SK-HEP1 [42] = assay: Inhibition of cell migration in TARBP2-knockout human SK-HEP1 cells at 1 to 25 uM incubated for 24 hrs by transwell assay; assay type: functional, cell-based; conditions: dose 1-25 µM
[43] = Acute toxicity in Kunming mouse assessed as effect on total bilirubin level in liver at 100 mg/kg,ip administration measured after 14 days; assay type: organism-based; conditions: in vivo, 336 h, time 14 day

SMILES: CCOc1ccc(-c2nc(C)c(C(=O)O)s2)cc1
- Activity (HCCLM3 [1]): inactive
- AUC(0-inf) [2]: 9740 ng·h/mL
- inhibition (HCCLM3 [3]): inactive
- Activity (HCCLM3 [4]): inactive
- MRT last [5]: 0.1 h
- Activity (SK-HEP1 [6]): Active
- inhibition (HCCLM3 [7]): Active
- inhibition (SK-HEP1 [8]): Dose-dependent-effect
- inhibition (Homo sapiens): Active
- Activity (SK-HEP1 [9]): Active
- inhibition (HCCLM3 [10]): Dose-dependent-effect
- Activity (SK-HEP1 [11]): inactive
- half-life [12]: 1.6 h
- Vd [13]: 0.161 L/kg
- Activity (HCCLM3 [14]): Active
- Activity [15]: Non-toxic
- Activity [16]: Non-toxic
- half-life [17]: 2.7 h
- Activity [18]: Non-toxic
- Activity [19]: Non-toxic
- AUC(0-t) [20]: 9730 ng·h/mL
- MRT last [21]: 2.6 h
- Activity [22]: Non-toxic
- Cmax [23]: 2210 ng/mL
- Activity (SK-HEP1 [24]): inactive
- Activity [25]: Non-toxic
- Activity [26]: Non-toxic
- Activity [27]: Non-toxic
- clearance [28]: 17.1 mL/min/kg
- Tmax [29]: 0.3 h
- Tmax [30]: 6 min
- Cmax [31]: 34900 ng/mL
- Activity [32]: Non-toxic
- Activity [33]: Non-toxic
- Activity [34]: Non-toxic
- AUC(0-t) [35]: 2670 ng·h/mL
- inhibition (SK-HEP1 [36]): Active
- Activity [37]: Non-toxic
- Activity [38]: Non-toxic
- MRT inf [39]: 3.9 h
- Activity (HCCLM3 [40]): Dose-dependent-effect
- inhibition (HCCLM3 [41]): Active
- inhibition (SK-HEP1 [42]): inactive
- Activity [43]: Non-toxic

SMILES: Cc1nc(-c2ccc(N3CCOCC3)cc2)sc1C(=O)O
- Activity (HCCLM3 [1]): inactive
- AUC(0-inf) [2]: 37500 ng·h/mL
- inhibition (HCCLM3 [3]): inactive
- Activity (HCCLM3 [4]): inactive
- MRT last [5]: 1.7 h
- Activity (SK-HEP1 [6]): Active
- inhibition (HCCLM3 [7]): Active
- inhibition (SK-HEP1 [8]): Dose-dependent-effect
- inhibition (Homo sapiens): Active
- Activity (SK-HEP1 [9]): Active
- inhibition (HCCLM3 [10]): Dose-dependent-effect
- Activity (SK-HEP1 [11]): inactive
- half-life [12]: 3.57 h
- Vd [13]: 0.496 L/kg
- Activity (HCCLM3 [14]): Active
- Activity [15]: Non-toxic
- Activity [16]: Non-toxic
- half-life [17]: 3.28 h
- Activity [18]: Non-toxic
- Activity [19]: Non-toxic
- AUC(0-t) [20]: 37400 ng·h/mL
- MRT last [21]: 3.5 h
- Activity [22]: Non-toxic
- Cmax [23]: 19800 ng/mL
- Activity (SK-HEP1 [24]): inactive
- Activity [25]: Non-toxic
- Activity [26]: Non-toxic
- Activity [27]: Non-toxic
- clearance [28]: 4.6 mL/min/kg
- Tmax [29]: 0.42 h
- Tmax [30]: 4.8 min
- Cmax [31]: 45900 ng/mL
- Activity [32]: Non-toxic
- Activity [33]: Non-toxic
- Activity [34]: Non-toxic
- AUC(0-t) [35]: 50400 ng·h/mL
- inhibition (SK-HEP1 [36]): Active
- Activity [37]: Non-toxic
- Activity [38]: Non-toxic
- MRT inf [39]: 3.7 h
- Activity (HCCLM3 [40]): Dose-dependent-effect
- inhibition (HCCLM3 [41]): Active
- inhibition (SK-HEP1 [42]): inactive
- Activity [43]: Non-toxic
